# Source: patent US12030867B2, “Hsp90β selective inhibitors” (University of Notre Dame du Lac, priority 2018, dated 2024)
# Read-outs that look alike come from different tables or passages of the source.
# What was measured:
# [1] = biological target: Hsp90α (Homo sapiens (Human), UniProt P07900); assay: fluorescence polarization (FP) assay, competitive displacement of FITC labeled Geldanamycin; type: binding
# Method: (§1) Once prepared, the compounds were evaluated for their binding affinities against the cytosolic isoforms, Hsp90α and Hsp90β by measuring their ability to competitively displace FITC labeled Geldanamycin (GDA) in a fluorescence polarization assay (apparent Kd's listed in Table 1). […] The alkyne (4k) was investigated to determine whether a linear substituent could project into the subpocket and affect selectivity.
# [2] = biological target: T1, Hsp90β (Homo sapiens (Human), UniProt P08238); assay: as above; type: binding
# Method: as §1
# [3] = biological target: Trap-1 (Homo sapiens (Human), UniProt Q12931); assay: binding affinity towards Trap-1
# [4] = biological target: Grp94 (Homo sapiens (Human), UniProt P14625); assay: binding affinity towards Grp94
# [5] = tested on: Hsp90 client proteins in UM-UC-3 cells; assay: western blot analysis of client proteins in UM-UC-3 cells; type: cell-based; details: 24-hour incubation
# Method: Since Hsp90 inhibition induces the degradation of Hsp90-dependent substrates via the ubiquitin-proteosome pathway, the levels of both kinase and non-kinase Hsp90 clients were assessed via western blot analysis. […]. […] […]. Survivin, which is an Hsp90α dependent substrate was not affected, providing direct evidence for isoform-selective inhibition in a cellular context.
# [6] = tested on: HT29 cells; assay: cells; details: Homo sapiens, HT-29
# [7] = tested on: other colon cancer cells; assay: cells
# [8] = tested on: UM-UC-3 bladder cancer cells; assay: cells; details: Homo sapiens, UMUC3
# [9] = tested on: PC3-MM2 prostate cancer cells; assay: cells; details: Homo sapiens, PC3MM2
# [10] = tested on: LNCap-LN3 prostate cancer cells; assay: cells
# [11] = tested on: C4-2b prostate cancer cells; assay: cells
# [12] = tested on: LAPC4 prostate cancer cells; assay: cells; details: Homo sapiens
# [13] = tested on: prostate cancer cells; assay: cells; details: read-out: efficacy against prostate cancer cells
# [14] = tested on: T24 bladder cancer cells; assay: tissue or blood
# [15] = biological target: T1, Hsp90β; details: previously reported inhibitors; cited from earlier work
# [16] = apparent Kd, FP assay, read-out: Hsp90α Kd
# [17] = apparent Kd, FP assay, read-out: Hsp90β Kd
# T1 sequence (P08238 whole entry): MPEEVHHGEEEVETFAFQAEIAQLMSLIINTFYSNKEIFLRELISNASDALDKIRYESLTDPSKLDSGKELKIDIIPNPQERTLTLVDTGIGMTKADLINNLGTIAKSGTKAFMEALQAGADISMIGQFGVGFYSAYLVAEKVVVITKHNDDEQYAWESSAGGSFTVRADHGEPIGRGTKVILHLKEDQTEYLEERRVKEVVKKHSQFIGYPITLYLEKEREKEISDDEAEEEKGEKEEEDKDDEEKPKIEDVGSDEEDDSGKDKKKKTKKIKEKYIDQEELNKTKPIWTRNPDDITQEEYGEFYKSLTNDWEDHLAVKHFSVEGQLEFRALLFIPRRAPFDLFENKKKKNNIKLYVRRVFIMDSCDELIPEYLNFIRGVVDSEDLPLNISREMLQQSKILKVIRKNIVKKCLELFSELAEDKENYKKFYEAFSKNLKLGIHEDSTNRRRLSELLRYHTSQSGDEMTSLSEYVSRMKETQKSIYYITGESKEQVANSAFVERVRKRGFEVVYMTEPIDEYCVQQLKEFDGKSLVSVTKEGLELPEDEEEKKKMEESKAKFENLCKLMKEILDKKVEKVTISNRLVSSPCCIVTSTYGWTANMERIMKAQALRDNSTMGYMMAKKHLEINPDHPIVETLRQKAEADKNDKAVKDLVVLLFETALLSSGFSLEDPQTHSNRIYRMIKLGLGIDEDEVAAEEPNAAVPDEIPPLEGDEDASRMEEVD
# Sequence of Trap-1 (Q12931 60-704): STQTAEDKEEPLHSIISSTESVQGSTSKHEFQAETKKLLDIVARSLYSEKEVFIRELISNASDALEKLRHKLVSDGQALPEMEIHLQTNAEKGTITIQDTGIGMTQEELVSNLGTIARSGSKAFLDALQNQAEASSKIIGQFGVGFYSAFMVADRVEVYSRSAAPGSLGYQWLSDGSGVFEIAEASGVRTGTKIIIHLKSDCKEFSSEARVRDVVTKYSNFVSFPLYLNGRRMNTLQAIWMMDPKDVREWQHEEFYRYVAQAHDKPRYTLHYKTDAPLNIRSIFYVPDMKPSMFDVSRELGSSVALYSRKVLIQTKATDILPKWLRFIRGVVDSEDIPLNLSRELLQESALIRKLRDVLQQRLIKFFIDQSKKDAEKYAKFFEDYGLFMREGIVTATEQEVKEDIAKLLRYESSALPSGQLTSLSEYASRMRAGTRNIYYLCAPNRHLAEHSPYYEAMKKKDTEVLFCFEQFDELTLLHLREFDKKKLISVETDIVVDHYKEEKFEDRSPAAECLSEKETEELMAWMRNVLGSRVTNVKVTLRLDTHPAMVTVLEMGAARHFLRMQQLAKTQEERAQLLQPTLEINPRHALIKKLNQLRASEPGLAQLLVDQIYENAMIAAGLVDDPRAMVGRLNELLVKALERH
# Sequence of Grp94 (P14625 22-803, species assumed): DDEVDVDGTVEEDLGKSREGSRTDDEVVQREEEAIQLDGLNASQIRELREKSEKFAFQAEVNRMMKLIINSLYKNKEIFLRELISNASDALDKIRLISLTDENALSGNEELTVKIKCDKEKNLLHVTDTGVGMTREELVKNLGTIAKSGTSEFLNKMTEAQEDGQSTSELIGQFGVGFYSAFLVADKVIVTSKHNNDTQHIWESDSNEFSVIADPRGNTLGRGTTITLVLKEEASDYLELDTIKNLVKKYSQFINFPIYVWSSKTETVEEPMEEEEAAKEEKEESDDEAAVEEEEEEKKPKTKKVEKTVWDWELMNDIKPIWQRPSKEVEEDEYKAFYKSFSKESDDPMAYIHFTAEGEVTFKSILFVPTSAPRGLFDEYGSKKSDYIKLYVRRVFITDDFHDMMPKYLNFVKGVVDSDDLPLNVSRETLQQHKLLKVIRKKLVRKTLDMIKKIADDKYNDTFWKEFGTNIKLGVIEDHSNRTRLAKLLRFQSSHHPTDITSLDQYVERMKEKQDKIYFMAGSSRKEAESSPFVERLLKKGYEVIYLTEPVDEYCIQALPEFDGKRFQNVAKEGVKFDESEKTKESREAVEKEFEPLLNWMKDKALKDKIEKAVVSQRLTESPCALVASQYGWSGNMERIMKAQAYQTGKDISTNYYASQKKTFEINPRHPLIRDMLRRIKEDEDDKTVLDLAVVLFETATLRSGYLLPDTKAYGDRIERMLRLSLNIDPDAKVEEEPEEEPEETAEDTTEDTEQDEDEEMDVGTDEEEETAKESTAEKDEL
smiles,measurement,setting,value
"Cc1cc2cc(-n3nc(C)c4c3CC(C)(C)CC4=O)cc(N[C@H]3CC[C@H](O)CC3)c2c(=O)[nH]1 [Compound 4a, 8-(((1r,4r)-4-hydroxycyclohexyl)amino)-3-methyl-6-(3,6,6-trimethyl-4-oxo-4,5,6,7-tetrahydro-1H-indazol-1-yl)isoquinolin-1(2H)-one]",Kd,[1]; [16],294 ± 23 nM
same,selectivity for Hsp90β over Hsp90α,[2],3 fold
same,Kd,[2]; [17],101 ± 3 nM
"CCc1cc2cc(-n3nc(C)c4c3CC(C)(C)CC4=O)cc(N[C@H]3CC[C@H](O)CC3)c2c(=O)[nH]1 [Compound 4b, 3-ethyl-8-(((1r,4r)-4-hydroxycyclohexyl)amino)-6-(3,6,6-trimethyl-4-oxo-4,5,6,7-tetrahydro-1H-indazol-1-yl)isoquinolin-1(2H)-one]",Kd,[1]; [16],180 ± 36 nM
same,Kd,[2]; [17],68 ± 8 nM
"Cc1nn(-c2cc(N[C@H]3CC[C@H](O)CC3)c3c(=O)[nH]c(C(C)C)cc3c2)c2c1C(=O)CC(C)(C)C2 [Compound 4c, 8-(((1r,4r)-4-hydroxycyclohexyl)amino)-3-isopropyl-6-(3,6,6-trimethyl-4-oxo-4,5,6,7-tetrahydro-1H-indazol-1-yl)isoquinolin-1(2H)-one]",Kd,[1]; [16],173 ± 36 nM
same,Kd,[2]; [17],51 ± 8 nM
"CCCc1cc2cc(-n3nc(C)c4c3CC(C)(C)CC4=O)cc(N[C@H]3CC[C@H](O)CC3)c2c(=O)[nH]1 [Compound 4d, 8-(((1r,4r)-4-hydroxycyclohexyl)amino)-3-propyl-6-(3,6,6-trimethyl-4-oxo-4,5,6,7-tetrahydro-1H-indazol-1-yl)isoquinolin-1(2H)-one]",Kd,[3],> 5000 nM
same,Kd,[4],> 5000 nM
same,CXCR4 and B-raf levels (Hsp90β-dependent clients),[5],marked dose-dependent reduction
same,FGFR3 level,[5],marked dose-dependent reduction
same,Hsp27 and Hsf-1 levels (heat shock related proteins),[5],declined upon increasing doses
same,Survivin level (Hsp90α dependent substrate),[5],not affected
same,GI50,[6],26 nM
same,GI50,[7],50 to 80 nM
same,GI50,[8],508 nM
same,GI50,[9],1240 nM
same,GI50,[10],1180 nM
same,GI50,[11],1030 nM
same,GI50,[12],2560 nM
same,IC50,[13],1000 to 2500 nM
same,GI50,[14],197 nM
"CCCCc1cc2cc(-n3nc(C)c4c3CC(C)(C)CC4=O)cc(N[C@H]3CC[C@H](O)CC3)c2c(=O)[nH]1 [Compound 4e, 3-butyl-8-(((1r,4r)-4-hydroxycyclohexyl)amino)-6-(3,6,6-trimethyl-4-oxo-4,5,6,7-tetrahydro-1H-indazol-1-yl)isoquinolin-1(2H)-one]",binding to Hsp90α (in words),[1]; FP assay,did not bind
same,Kd,[1]; [16],> 50000 nM
same,Kd,[2],186 nM
same,selectivity for Hsp90β over Hsp90α,[2],> 300 fold
same,affinity for Hsp90β (in words),[2]; FP assay,did not bind
same,Kd,[2]; [17],156 ± 18 nM
"Cc1nn(-c2cc(N[C@H]3CC[C@H](O)CC3)c3c(=O)[nH]c(C(C)(C)C)cc3c2)c2c1C(=O)CC(C)(C)C2 [Compound 4f, 3-(tert-butyl)-8-(((1r,4r)-4-hydroxycyclohexyl)amino)-6-(3,6,6-trimethyl-4-oxo-4,5,6,7-tetrahydro-1H-indazol-1-yl)isoquinolin-1(2H)-one]",Kd,[1]; [16],> 50000 nM
same,Kd,[2]; [17],> 50000 nM
"Cc1nn(-c2cc(N[C@H]3CC[C@H](O)CC3)c3c(=O)[nH]c(CC(C)C)cc3c2)c2c1C(=O)CC(C)(C)C2 [Compound 4g, 8-(((1r,4r)-4-hydroxycyclohexyl)amino)-3-isobutyl-6-(3,6,6-trimethyl-4-oxo-4,5,6,7-tetrahydro-1H-indazol-1-yl)isoquinolin-1(2H)-one]",Kd,[1]; [16],> 50000 nM
same,affinity for Hsp90β (in words),[2]; FP assay,decrease in affinity
same,selectivity for Hsp90β over Hsp90α (in words),[2]; FP assay,maintained selectivity
same,Kd,[2]; [17],264 ± 30 nM
"Cc1nn(-c2cc(N[C@H]3CC[C@H](O)CC3)c3c(=O)[nH]c(C4CC4)cc3c2)c2c1C(=O)CC(C)(C)C2 [Compound 4h, 3-cyclopropyl-8-(((1r,4r)-4-hydroxycyclohexyl)amino)-6-(3,6,6-trimethyl-4-oxo-4,5,6,7-tetrahydro-1H-indazol-1-yl)isoquinolin-1(2H)-one]",Kd,[1]; [16],1880 ± 280 nM
same,affinity for Hsp90β (in words),[2]; FP assay,loss of potency
same,Kd,[2]; [17],946 ± 38 nM
"COCc1cc2cc(-n3nc(C)c4c3CC(C)(C)CC4=O)cc(N[C@H]3CC[C@H](O)CC3)c2c(=O)[nH]1 [Compound 4i, 8-(((1r,4r)-4-hydroxycyclohexyl)amino)-3-(methoxymethyl)-6-(3,6,6-trimethyl-4-oxo-4,5,6,7-tetrahydro-1H-indazol-1-yl)isoquinolin-1(2H)-one]",Kd,[1]; [16],306 ± 23 nM
same,selectivity for Hsp90β over Hsp90α (in words),[2]; FP assay,loss of selectivity
same,Kd,[2]; [17],159 ± 3 nM
"Cc1nn(-c2cc(N[C@H]3CC[C@H](O)CC3)c3c(=O)[nH]c(CO)cc3c2)c2c1C(=O)CC(C)(C)C2 [Compound 4j, 8-(((1r,4r)-4-hydroxycyclohexyl)amino)-3-(hydroxymethyl)-6-(3,6,6-trimethyl-4-oxo-4,5,6,7-tetrahydro-1H-indazol-1-yl)isoquinolin-1(2H)-one]",Kd,[1]; [16],824 ± 104 nM
same,selectivity for Hsp90β over Hsp90α (in words),[2]; FP assay,loss of selectivity
same,Kd,[2]; [17],233 ± 18 nM
"C#Cc1cc2cc(-n3nc(C)c4c3CC(C)(C)CC4=O)cc(N[C@H]3CC[C@H](O)CC3)c2c(=O)[nH]1 [Compound 4k, 3-ethynyl-8-(((1r,4r)-4-hydroxycyclohexyl)amino)-6-(3,6,6-trimethyl-4-oxo-4,5,6,7-tetrahydro-1H-indazol-1-yl)isoquinolin-1(2H)-one]",Kd,[1]; [16],381 ± 3 nM
same,selectivity for Hsp90β over Hsp90α (in words),[2]; FP assay,without discrimination
same,Kd,[2]; [17],337 ± 15 nM
"CCCc1cc2cc(-n3nc(C)c4c3CC(C)(C)CC4=O)cc(N3CCOCC3)c2c(=O)[nH]1 [Compound 5a, 8-morpholino-3-propyl-6-(3,6,6-trimethyl-4-oxo-4,5,6,7-tetrahydro-1H-indazol-1-yl)isoquinolin-1(2H)-one]",Kd,[1]; [16],> 50000 nM
same,selectivity for Hsp90β over Hsp90α (in words),[2]; FP assay,excellent selectivity
same,Kd,[2]; [17],121 ± 17 nM
same,Kd,[2]; read-out: Kd for Hsp90β,~121 nM
"CCCc1cc2cc(-n3nc(C)c4c3CC(C)(C)CC4=O)cc(N3CCN(C)CC3)c2c(=O)[nH]1 [Compound 5c, 8-(4-methylpiperazin-1-yl)-3-propyl-6-(3,6,6-trimethyl-4-oxo-4,5,6,7-tetrahydro-1Hindazol-1-yl)isoquinolin-1(2H)-one]",Kd,[1]; [16],8520 ± 240 nM
same,affinity for Hsp90β (in words),[2]; FP assay,decrease in affinity
same,selectivity for Hsp90β over Hsp90α (in words),[2]; FP assay,decrease in affinity and selectivity
same,Kd,[2]; [17],426 ± 53 nM
"CCCc1cc2cc(-n3nc(C)c4c3CC(C)(C)CC4=O)cc(N3CCNCC3)c2c(=O)[nH]1 [Compound 5d, 8-(piperazin-1-yl)-3-propyl-6-(3,6,6-trimethyl-4-oxo-4,5,6,7-tetrahydro-1H-indazol-1-yl)isoquinolin-1(2H)-one]",Kd,[1]; [16],> 50000 nM
same,Kd,[2]; [17],4470 ± 278 nM
"CCCc1cc2cc(-n3nc(C)c4c3CC(C)(C)CC4=O)cc(N3CCN(C(=O)OC(C)(C)C)CC3)c2c(=O)[nH]1 [Compound 5e, tert-butyl 4-(1-oxo-3-propyl-6-(3,6,6-trimethyl-4-oxo-4,5,6,7-tetrahydro-1H-indazol-1-yl)-1,2-dihydroisoquinolin-8-yl)piperazine-1-carboxylate]",Kd,[1],> 50000 nM
same,Kd,[2],463 ± 31 nM
"CCCc1cc2cc(-n3nc(C)c4c3CC(C)(C)CC4=O)cc(NC3CCN(C)CC3)c2c(=O)[nH]1 [Compound 5f, 8-((1-methylpiperidin-4-yl)amino)-3-propyl-6-(3,6,6-trimethyl-4-oxo-4,5,6,7-tetrahydro-1Hindazol-1-yl)isoquinolin-1(2H)-one]",Kd,[1]; [16],17100 ± 660 nM
same,Kd,[2]; [17],513 ± 67 nM
"CCCc1cc2cc(-n3nc(C)c4c3CC(C)(C)CC4=O)cc(N(C)CCN(CC)CC)c2c(=O)[nH]1 [Compound 5g, 8-((2-(diethylamino)ethyl)(methyl)amino)-3-propyl-6-(3,6,6-trimethyl-4-oxo-4,5,6,7-tetrahydro-1H-indazol-1-yl)isoquinolin-1(2H)-one]",Kd,[1]; [16],> 50000 nM
same,Kd,[2]; [17],4460 ± 188 nM
"CCCC1Cc2cc(-n3nc(C)c4c3CC(C)(C)CC4=O)cc(N3CCC(O)CC3)c2C(=O)N1 (centres unmarked) [Compound 6b, 8-(4-hydroxypiperidin-1-yl)-3-propyl-6-(3,6,6-trimethyl-4-oxo-4,5,6,7-tetrahydro-1Hindazol-1-yl)-3,4-dihydroisoquinolin-1(2H)-one]",affinity for Hsp90β (in words),[2]; FP assay,lost both selectivity and affinity
same,selectivity for Hsp90β over Hsp90α (in words),[2]; FP assay,lost both selectivity and affinity
CC1(C)CC(=O)c2c(C(F)(F)F)nn(-c3ccc(C(N)=O)c(N[C@H]4CC[C@H](O)CC4)c3)c2C1 [SNX 2112],Hsp90α/Hsp90β isoform profile (in words),[15],equipotent affinity
